According to PMC8162746 (Cancer chemotherapy and pharmacology, 2021):
“And” between values parts separate entries of the source, which are not always exact repeats. Identical values can stand only once. Like-named read-outs stand apart in the source and are kept apart here.

Tests used:
[1] = test system: patients with primary CNS and advanced solid tumors; experiment: Phase I dose-escalation trial of oral AR-42: safety and tolerability; assay type: in vivo
[2] = Plasma pharmacokinetics, LC-MS/MS, non-compartmental analysis; assay type: in vivo, human; conditions: for AUC / Cmax: oral; for AUC: Median AUC; for Cmax: Median Cmax
[3] = test system: primary CNS and advanced solid tumors; experiment: Phase I trial: response evaluation; assay type: in vivo, human
[4] = test system: patients with multiple myeloma and T- and B-cell lymphomas; conditions: cited from earlier work
[5] = cited from earlier work
[6] = test system: Burkitt lymphoma mouse models; conditions: cited from earlier work
[7] = test system: schwannoma and meningioma cell lines; conditions: cited from earlier work
[8] = human, plasma, patients without grade 3 or 4 toxicity

CC(C)[C@H](C(=O)Nc1ccc(C(=O)NO)cc1)c1ccccc1 [AR-42]
Nausea, treatment-related adverse event, All grades ([1]; N=17, 30-80 mg): 10 n (%) and 10 (58.8%) n (%) | Nausea, treatment-related adverse event, Grade 1–2 ([1]; N=17, 30-80 mg): 8 (47.1%) n (%) | Nausea, treatment-related adverse event, Grade 3–4 ([1]; N=17, 30-80 mg): 2 (11.8%) n (%) | Neutropenia, treatment-related adverse event, All grades ([1]; N=17, 30-80 mg): 7 n (%) and 7 (41.2%) n (%) | Neutropenia, treatment-related adverse event, Grade 1–2 ([1]; N=17, 30-80 mg): 7 (41.2%) n (%) | Psychiatric disorder, treatment-related adverse event, All grades ([1]; N=17, 30-80 mg): 1 (5.9%) n (%) | Psychiatric disorder, treatment-related adverse event, Grade 3–4 ([1]; N=17, 30-80 mg): 1 (5.9%) n (%) | Thrombocytopenia, treatment-related adverse event, All grades ([1]; N=17, 30-80 mg): 13 (76.5%) n (%) | Thrombocytopenia, treatment-related adverse event, Grade 1–2 ([1]; N=17, 30-80 mg): 8 (47.1%) n (%) | Thrombocytopenia, treatment-related adverse event, Grade 3–4 ([1]; N=17, 30-80 mg): 5 (29.4%) n (%) | Thromboembolic event, treatment-related adverse event, All grades ([1]; N=17, 30-80 mg): 1 (5.9%) n (%) | Thromboembolic event, treatment-related adverse event, Grade 3–4 ([1]; N=17, 30-80 mg): 1 (5.9%) n (%) | Vomiting, treatment-related adverse event, All grades ([1]; N=17, 30-80 mg): 4 (23.5%) n (%) | Vomiting, treatment-related adverse event, Grade 1–2 ([1]; N=17, 30-80 mg): 4 (23.5%) n (%) | Weight loss, treatment-related adverse event, All grades ([1]; N=17, 30-80 mg): 3 (17.6%) n (%) | Weight loss, treatment-related adverse event, Grade 1–2 ([1]; N=17, 30-80 mg): 2 (11.8%) n (%) | Weight loss, treatment-related adverse event, Grade 3–4 ([1]; N=17, 30-80 mg): 1 (5.9%) n (%) | Only grade 4 TRAE ([1]; at the 80 mg dose): psychosis | No. of dose delays ([1]; dose level 1A, 30 mg): 0 | No. of dose reductions ([1]; dose level 1A, 30 mg): 0 | Description of DLT ([1]; dose level 1B, 60 mg): Thrombocytopenia (grade 3) | No. of dose delays ([1]; dose level 1B, 60 mg): 4 | No. of dose reductions ([1]; dose level 1B, 60 mg): 2 | No. of patients with a DLT ([1]; dose level 1B, 60 mg, 7 patients): 1 | No. of dose delays ([1]; dose level 2A, 60 mg): 0 | No. of dose reductions ([1]; dose level 2A, 60 mg): 0 | No. of patients with a DLT ([1]; dose level 2A, 60 mg, 2 patients): 0 | No. of dose delays ([1]; dose level 2B, 80 mg): 0 | No. of dose reductions ([1]; dose level 2B, 80 mg): 0 | No. of patients with a DLT ([1]; dose level 2B, 80 mg, 2 patients): 1 | Patients who developed a grade 4 toxicity ([1]; during cycle one, N=17): 5.9% | Patients who developed at most a grade 1 toxicity ([1]; during cycle one, N=17): 23.5% | Patients who developed at most a grade 2 toxicity ([1]; during cycle one, N=17): 29.4% | Patients who developed at most a grade 3 toxicity ([1]; during cycle one, N=17): 29.4% | Patients who experienced no toxicities ([1]; during cycle one, N=17): 11.8% | No. of dose delays ([1]; expansion cohort, 60 mg): 0 | No. of dose reductions ([1]; expansion cohort, 60 mg): 0 | Grade 4 thrombocytopenia ([1]; in vivo): no grade 4 thrombocytopenia | Recommended phase II dose (RP2D) ([1]; oral, three times weekly, three weeks of a 28-day cycle): 60 mg | Clinically significant bleeding events ([1]; with thrombocytopenia): no clinically significant bleeding events | Accumulation ([2]; 3 times weekly for three weeks of a four-week cycle): did not accumulate | Cmax, AUC0–24 and AUC0–∞ between Day 1 and Day 19 ([2]; cycle 1): remained consistent | AUC ([2]; human, plasma, patients with a grade 3 or 4 toxicity during cycle 1 and 2, p=0.036): 16.4 µM·h | AUC [2, 8]: 11.3 µM·h | Cmax ([2]; human, plasma, patients with a grade 3 or 4 toxicity during cycle 1 and 2, p=0.0016): 1540 nM | Cmax [2, 8]: 1040 nM | half-life ([2]; human, plasma, po): 8 to 13 h | AUC0–24 and AUC0–∞ higher in 80 mg dose group compared to 60 mg dose group ([2]; only two patients at 80 mg): roughly 50% | Median CL/F ([2]; patients with a grade 3 or 4 toxicity during cycle 1 and 2, p=0.0745): 10.48 L/h | Median CL/F ([2]; patients without grade 3 or 4 toxicity): 15.8 L/h | Stable disease ([3]; 30 mg): 1 of 3 | Stable disease ([3]; 60 mg): 7 of 11 | Follow up without progression ([3]; 1 of 5 patients with NF2 or meningioma): > 27 months | Best response stable disease, proportion of patients ([3]; 15 evaluable patients, 95% CI 26.6–78.7): 53% | Stable disease ([3]; all evaluable patients): 8 of 15 | Median PFS ([3]; evaluable NF2 or meningioma (n=5), 60 mg, 95% CI 1.9-not reached): 9.1 months | Median PFS ([3]; non-CNS solid tumors (n=10), 95% CI 0.1–5.0): 1.7 months | Median PFS ([3]; overall cohort, 95% CI 1.2–9.1): 3.6 months | Mean QTc change ([4]; patients with grade 1 QTc prolongation): 27.4 ms | Grade 1 QTc prolongation ([4]; phase I study in hematologic malignancies): 8 of 27 | Thrombocytopenia ([4]; phase I trial in hematologic malignancies): 16 of 27 | Maximum tolerated dose (MTD) ([4]; three times weekly for three weeks of a 28-day cycle): 40 mg | Blood brain barrier penetration ([5]; mouse model): crossed the blood brain barrier | Blood brain barrier penetration ([5]; rodents): penetrates the blood brain barrier | Activity compared with vorinostat [6]: superior to that of vorinostat | Proliferation of schwannoma and meningioma cell lines ([7]; cell cycle arrest at G2 and apoptosis): suppressed proliferation | AKT phosphorylation [7]: decreased AKT phosphorylation
